Format in all cases: in vivo
The subject of assay [1] is db/db mice. Description: Blood glucose and leptin in mouse type II diabetes model, limonoid compound, gliclazide or combination. As to conditions: single administration 0.04 g/kg per day by gavage, two weeks, 1 h after last administration, model group 23.9 ± 4.2, normal 6.0 ± 0.7. The source says:
In the present example, db/db mice (line name BKS.Cg-Dock7^m+/+Lepr^db/Nju) were used to perform hypoglycemic efficacy evaluation test of animals (blood glucose level and leptin). The limonoid compound was selected from obacunone, isoobacunoic acid and obacunone glycoside, and gliclazide single administration group, obacunone single administration group, isoobacunoic acid single administration group, obacunone glycoside single administered group, and respective combination thereof with gliclazide administration groups were set. Conditions for experimental feeding: as type II diabetes model mice, 6-week-old SPF-grade db/db mice were purchased from the Nanjing Model Biology Institute, and subjected to experimental feeding after 7 days of preliminary feeding. It should be noted that the conditions for raising the mice were as follows: the temperature was 23±1° C., the humidity was 55±10%, the lights were turned on between 7 am and 7 pm (the lights were turned off at other time), and the mice were allowed to freely take in water and feed. […] The data were expressed as mean and standard deviation. The data before and after were analyzed by t-test, and P<0.05 was considered statistically significant.

Assay [2] deals with db/db mice. Description: Blood glucose and insulin in mouse type II diabetes model, limonoid compound, gliquidone or combination. The following applies: single administration 0.2 g/kg per day by gavage, two weeks. The source says:
In the present embodiment, the limonoid compound was selected from nomilin, deacetylnomilin, nomilin acid, deacetylnomilin acid glycoside, and gliquidone single administration group, nomilin single administration group, deacetylnomilin single administration group, nomilin acid single administered group, deacetylnomilin acid glycoside single administration group, and respective combination thereof with gliquidone administration groups were set.
Conditions for experimental feeding: as type II diabetes model mice, 6-week-old SPF-grade db/db mice were purchased from the Nanjing Model Biology Institute, and subjected to experimental feeding after 7 days of preliminary feeding. It should be noted that the conditions for raising the mice were as follows: the temperature was 23±1° C., the humidity was 55±10%, the lights were turned on between 7 am and 7 pm (the lights were turned off at other time), and the mice were allowed to freely take in water and feed. The experimental feed was mouse growth-stable feed (GB M2118), and the daily feeding and management of the animals were under the responsibility of the animal security department, which provided the animals with sufficient diet and fresh drinking water daily.
Experimental grouping: male db/db mice (20±2 g) were selected, 18 male mice in each group were tested, and drinking bottles were sterilized weekly. […]

Assay [3] has as its system STZ mice (type II diabetes with pancreatic islet damage and obesity). Kind of assay: Blood glucose in mouse type II diabetes model with pancreatic islet damage and obesity (STZ + high-fat diet), limonoid compound, glimepiride or combination. The following applies: STZ + high-fat diet ICR mice, single administration 0.5 g/kg per day by gavage, two weeks, 1 h after last administration; model group 29.6 ± 6.0, normal 5.9 ± 0.54. The source says: In this example, a mouse model of type II diabetes with pancreatic islet damage and obesity was established by multiple modeling ICR mice with a small dose of streptozotocin (STZ), following with continuous high-fat diets (referring to literature: […] Conditions of experimental feeding: ICR mice (20±2 g), aged 6 weeks, purchased from Zhejiang Academy of Medical Sciences, and subjected to experimental feeding after 7 days of preliminary feeding. It should be noted that the conditions for raising the mice were as follows: the temperature was 23±1° C., the humidity was 55±10%, the lights were turned on between 7 am and 7 pm (the lights were turned off at other time), and the mice were allowed to freely take in water and feed. The experimental feed was mouse growth-stable feed (GB […]), and the daily feeding and management of the animals were under the responsibility of the animal security department, which provided the animals with sufficient diet and fresh drinking water daily. […] The data were expressed as mean and standard deviation. The data before and after were analyzed by t-test, and P<0.05 was considered statistically significant.

For assay [4], the system named is STZ mice (mouse pancreatic islet β-cell injury model). Kind of assay: Blood glucose in mouse pancreatic islet β-cell injury model (STZ), limonoid compound, glibenclamide or combination. The following applies: STZ ICR mice, single administration 0.02 g/kg per day by gavage, two weeks, 1 h after last administration; model group 29.5 ± 4.6, normal 7.5 ± 0.6. From the text: The limonoid compound was selected from the group consisting of limonin, isolimonic acid, limonin glycoside, and isolimonic acid glycoside, and glibenclamide single administration group, limonin single administration group, isolimonic acid single administration group, limonin glycoside singe administration group, isolimonic acid glycoside singe administration group, and respective combination thereof with glibenclamide administration groups were set. Conditions of experimental feeding: ICR mice (20±2 g), aged 6 weeks, purchased from Zhejiang Academy of Medical Sciences, and subjected to experimental feeding after 7 days of preliminary feeding. It should be noted that the conditions for raising the mice were as follows: the temperature was 23±1° C., the humidity was 55±10%, the lights were turned on between 7 am and 7 pm (the lights were turned off at other time), and the mice were allowed to freely take in water and feed. The experimental feed was mouse growth-stable feed (GB […]), and the daily feeding and management of the animals were under the responsibility of the animal security department, which provided the animals with sufficient diet and fresh drinking water daily. […] The data were expressed as mean and standard deviation. The data before and after were analyzed by t-test, and P<0.05 was considered statistically significant.

For assay [5] the test system is unchanged. Kind of assay: Blood glucose in mouse pancreatic islet β-cell injury model (STZ), limonoid compound, glipizide or combination. The following applies: STZ ICR mice, single administration 0.1 g/kg per day by gavage, two weeks, 1 h after last administration; model group 29.5 ± 4.6, normal 7.5 ± 0.6. From the text: In this example, a mouse pancreatic islet β-cell injury model was established by modeling ICR mice with streptozotocin (STZ) (Li Nan et al., Protective effect of pine pollen on kidney damage in diabetic nephropathy mice, Science and Technology Review, 2014, 32 (4/5): 95-99), and used to complete the evaluation of hypoglycemic effect in animals (this model could simulate pancreatic islet β-cell damage state of type I and type II diabetics). […]
Gavage doses: the gavage dose was 0.1 g/kg per day for the ichangin group, the gavage dose was 0.1 g/kg per day for the ichangensin group, the gavage dose was 0.1 g/kg per day for the ichangin glycoside group, the gavage dose of glipizide was 0.1 g/kg per day for the glipizide group, ichangin at a dose of 0.05 g/kg and glipizide at a dose of 0.05 g/kg were simultaneously gavaged per day for the ichangin/glipizide combination group, ichangensin at a dose of 0.05 g/kg and glipizide at a dose of 0.05 g/kg were simultaneously gavaged per day for the ichangensin/glipizide combination group, ichangin glycoside at a dose of 0.05 g/kg and glipizide at a dose of 0.05 g/kg were simultaneously gavaged per day for the ichangin glycoside/glipizide combination group, the gavage volume was 10 mL/kg, and the normal group and the model group were administrated with 10 mL/kg of distilled water. […] The data were expressed as mean and standard deviation. […]

This passage reports Blood glucose value and Insulin results from US20220296615A1, “COMBINATION PRODUCT CONTAINING LIMONOID COMPOUND AND SULFONYLUREA COMPOUND” (ZHEJIANG YANGSHENGTANG INSTITUTE OF NATURAL MEDICATION CO., …, priority 2019, published 2022).

Structures are written as SMILES.

Regarding `Cc1ccc(S(=O)(=O)NC(=O)NN2CC3CCCC3C2)cc1` (stereo not drawn) [Gliclazide, gliclazide], the Blood glucose value in assay [1] came out at 11.5 ± 2.9 mmol/L.
On to `COc1ccc2c(c1)C(=O)N(CCc1ccc(S(=O)(=O)NC(=O)NC3CCCCC3)cc1)C(=O)C2(C)C` [gliquidone], for which the Insulin in assay [2] (serum, ELISA, model group 10.56 ± 3.00, normal 1.05 ± 0.39) turned out to be 7.82 ± 1.52 pg/mL. Also, the Blood glucose value in assay [2] (1 h after last administration, model group 23.9 ± 4.2, normal 6.0 ± 0.7) stood at 10.3 ± 2.1 mmol/L.
For `CCC1=C(C)CN(C(=O)NCCc2ccc(S(=O)(=O)NC(=O)N[C@H]3CC[C@H](C)CC3)cc2)C1=O` [Glimepiride, glimepiride], the Blood glucose value in assay [3] came out at 10.4 ± 2.1 mmol/L.
As to `COc1ccc(Cl)cc1C(=O)NCCc1ccc(S(=O)(=O)NC(=O)NC2CCCCC2)cc1` [Glibenclamide, glibenclamide], in assay [4], the Blood glucose value is reported as 18.3 ± 3.2 mmol/L.
For the compound `Cc1cnc(C(=O)NCCc2ccc(S(=O)(=O)NC(=O)NC3CCCCC3)cc2)cn1` [Glipizide, glipizide], the Blood glucose value in assay [5] worked out at 14.5 ± 2.3 mmol/L.
